SMILES strings stand for the structures.

In the first series the target is T1, Dihydrofolate reductase (Pneumocystis carinii, UniProt P16184).
T1 sequence (P16184 whole entry): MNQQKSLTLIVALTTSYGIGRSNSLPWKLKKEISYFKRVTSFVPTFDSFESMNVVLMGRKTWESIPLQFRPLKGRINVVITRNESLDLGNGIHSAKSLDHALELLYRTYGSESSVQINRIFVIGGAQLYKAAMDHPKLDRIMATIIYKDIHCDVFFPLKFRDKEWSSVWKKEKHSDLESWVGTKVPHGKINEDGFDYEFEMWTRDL
Details: not given
For `CC1(C)N=C(N)N=C(N)N1c1cccc(COc2cccc(NC(N)=O)c2)c1`, the Ki is 0.00457 µM.
Turning to `CC(C)(C)c1cccc(N2C(N)=NC(N)=NC2(C)C)c1`, the Ki is 0.214 µM.
`CSc1ccc(N2C(N)=NC(N)=NC2(C)C)cc1` showed a Ki of 0.251 µM.
Consider `CCCCCOc1ccc(N2C(N)=NC(N)=NC2(C)C)cc1`, for which the Ki was 0.257 µM.
Still for that read-out and setting: the result for `CC1(C)N=C(N)N=C(N)N1c1cccc(SCc2ccccc2)c1` reads 0.00282 µM.
`CCOc1cccc(N2C(N)=NC(N)=NC2(C)C)c1`: the Ki is 6.31 µM.
Turning to `CCCCCCCCCCCCCCOc1cccc(N2C(N)=NC(N)=NC2(C)C)c1`, the Ki is 0.331 µM.
In turn, `CC(=O)Nc1cccc(OCc2cccc(N3C(N)=NC(N)=NC3(C)C)c2)c1` gave a Ki of 0.00324 µM.
On the same count and under the same terms, the result for `CCCCCCCc1ccc(N2C(N)=NC(N)=NC2(C)C)cc1` reads 0.00631 µM; that for `CCCCCCOc1ccc(N2C(N)=NC(N)=NC2(C)C)cc1`, 0.1 µM.
The compound `CCOc1cc(Cc2cnc(N)nc2N)cc(OCC)c1-n1cccc1` [EPIROPRIM] gave a Ki of 0.0174 µM.
Turning to `CC1(C)N=C(N)N=C(N)N1c1cccc(SCc2ccc(Cl)cc2)c1`, the Ki is 0.00263 µM.
On the same count and under the same terms, the result for `CC1(C)N=C(N)N=C(N)N1c1cccc(COc2cccc3ccccc23)c1` reads 0.00537 µM.
`CCCCCCCCCCc1ccc(N2C(N)=NC(N)=NC2(C)C)cc1`: the Ki is 0.0158 µM.
Consider `CC(C)c1cccc(OCc2cccc(N3C(N)=NC(N)=NC3(C)C)c2)c1`, for which the Ki was 0.00479 µM.
As for `CC1(C)N=C(N)N=C(N)N1c1cccc(COc2cccc(C#N)c2)c1`, the Ki is 0.00832 µM.
In turn, `CCc1cccc(OCc2cccc(N3C(N)=NC(N)=NC3(C)C)c2)c1` showed a Ki of 0.00417 µM.
Same read-out and setting: the result for `Cc1ccc(N2C(N)=NC(N)=NC2(C)C)cc1` reads 0.166 µM; that for `CCCCOc1ccc(N2C(N)=NC(N)=NC2(C)C)cc1`, 0.631 µM; that for `CC1(C)N=C(N)N=C(N)N1c1cccc(OCC23CC4CC(CC(C4)C2)C3)c1`, 0.017 µM.
On the same count and under the same terms, the result for `CC1(C)N=C(N)N=C(N)N1c1cccc(OCCOc2cccc(C(F)(F)F)c2)c1` reads 0.0224 µM; that for `CC1(C)N=C(N)N=C(N)N1c1cccc(OCc2ccccc2)c1`, 0.0646 µM; that for `CCCCCCCCCOc1cccc(N2C(N)=NC(N)=NC2(C)C)c1`, 0.00676 µM.
`CC1(C)N=C(N)N=C(N)N1c1cccc(CNc2cc(C(N)=O)cc(C(N)=O)c2)c1`: the Ki is 0.0151 µM.
In the case of `CC1(C)N=C(N)N=C(N)N1c1cccc(OCCCCOc2ccccc2)c1`, the Ki was 0.038 µM.
Still for that read-out and setting: the result for `CC1(C)N=C(N)N=C(N)N1c1ccc(O)cc1` reads 2.51 µM; that for `CC1(C)N=C(N)N=C(N)N1c1cccc(COc2cccc(-c3ccccc3)c2)c1`, 0.00447 µM.
`COc1cccc(OCc2cccc(N3C(N)=NC(N)=NC3(C)C)c2)c1`: the Ki is 0.00776 µM.
On the same count and under the same terms, the result for `CCCCCCCCCCCOc1cccc(N2C(N)=NC(N)=NC2(C)C)c1` reads 0.0186 µM; that for `CCCCCc1ccc(OCc2cccc(N3C(N)=NC(N)=NC3(C)C)c2)cc1`, 0.017 µM; that for `CC1(C)N=C(N)N=C(N)N1c1cccc(COc2cccc(Cl)c2)c1`, 0.012 µM.
As for `CC1(C)N=C(N)N=C(N)N1c1cccc([N+](=O)[O-])c1`, the Ki is 0.132 µM.
The compound `CC1(C)N=C(N)N=C(N)N1c1ccc(C(F)(F)F)cc1` showed a Ki of 0.132 µM.
With `CC1(C)N=C(N)N=C(N)N1c1cccc(C(O)c2ccccc2)c1` (stereo not drawn), the Ki was 1.17 µM.
Turning to `CCCCCCOc1cccc(N2C(N)=NC(N)=NC2(C)C)c1`, the Ki was 0.0214 µM.
As for `CCCCCCCCc1ccc(N2C(N)=NC(N)=NC2(C)C)cc1`, the Ki is 0.00631 µM.
In the case of `Cc1cccc(OCc2cccc(N3C(N)=NC(N)=NC3(C)C)c2)c1`, the Ki is 0.0195 µM.
Compound `CC1(C)N=C(N)N=C(N)N1c1cccc(COc2cccc(CO)c2)c1` showed a Ki of 0.0251 µM.
In turn, `CCOC(=O)c1cccc(N2C(N)=NC(N)=NC2(C)C)c1` had a Ki of 2.34 µM.
Compound `CCCCCCc1ccc(N2C(N)=NC(N)=NC2(C)C)cc1` showed a Ki of 0.00794 µM.

A further series deals with T2, Dihydrofolate reductase (Homo sapiens, UniProt P00374).
T2 sequence (P00374 whole entry): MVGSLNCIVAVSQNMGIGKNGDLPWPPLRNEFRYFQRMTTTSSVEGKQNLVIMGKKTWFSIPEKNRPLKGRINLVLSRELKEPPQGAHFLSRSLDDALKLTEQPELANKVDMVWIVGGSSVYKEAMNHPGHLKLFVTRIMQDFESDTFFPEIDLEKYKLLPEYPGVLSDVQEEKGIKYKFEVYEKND
The series can be described thus: Inhibition of human dihydrofolate reductase (DHFR). The note with it: read-out: Log 1/Ki (converted).
On to `CC1(C)N=C(N)N=C(N)N1c1cccc(SCc2ccccc2)c1`, for which the Ki is 0.0427 µM.
Regarding `CC1(C)N=C(N)N=C(N)N1c1cccc(COc2cccc3ccccc23)c1`, the Ki was 0.135 µM.

Tested on in a further series: not listed separately
The series can be described thus: Partition coefficient (logP). It is filed as physicochemical. The note with it: octanol/water.
One may read the logP as a log measure of how a compound divides between an organic and an aqueous phase. Low readings indicate a more hydrophilic compound, high ones a more lipophilic compound. For the compound `CC1(C)N=C(N)N=C(N)N1c1ccc(CCCCc2ccc(S(=O)(=O)F)cc2Cl)c(Cl)c1`, the logP came to 2.42.
On the same count and under the same terms, the result for `CN(C)C(=O)c1cccc(COc2ccc(N3C(N)=NC(N)=NC3(C)C)cc2Cl)c1` reads -1.84.

Tested on in another series: not listed separately
The series can be described thus: Selectivity index as the ratio of Ki value towards Human DHFR to that of Pneumocystis carinii DHFR.
Details: not given
As for `CC1(C)N=C(N)N=C(N)N1c1cccc(SCc2ccccc2)c1`, the Selectivity index was 1.18.
Turning to `CCOc1cc(Cc2cnc(N)nc2N)cc(OCC)c1-n1cccc1` [EPIROPRIM], the Selectivity index was determined as 0.53.
As to `CC1(C)N=C(N)N=C(N)N1c1cccc(COc2cccc3ccccc23)c1`, the Selectivity index is 1.38.
On to `CC1(C)N=C(N)N=C(N)N1c1cccc(OCC23CC4CC(CC(C4)C2)C3)c1`, for which the Selectivity index is 1.66.

The values above are taken from ChEMBL document CHEMBL1128273, “Quantitative structure-activity relationships of the inhibition of Pneumocystis carinii dihydrofolate reductase by 4,6-diamino-1,2-dihydro-2,2-dimethyl-1-(X-phenyl)-s-triazines” (J Med Chem, 1995).
